Measured values published in patent publication US20100022559A1, “BISOXIMES AS FUNGICIDES” (BAYER CROPSCIENCE AG, priority 2006, published 2010).
One block for each compound: values may come before it.

Assay: logP determination by HPLC on a reversed-phase column (C 18), EEC Directive 79/831 Annex V.A8
Format: physicochemical
Description: The stated logP values were determined in accordance with EEC Directive 79/831 Annex V.A8 by HPLC (high performance liquid chromatography) on a reversed-phase column (C 18). Temperature: 43° C.

[1] = method marker [b], isomer A / isomer B / isomer mixture as noted in the cell
[2] = method marker [a] (footnote not shown), isomer A / isomer B / isomer mixture as noted in the cell

logP (value marked [a]): 7.36^[b][a] | logP (value marked [b]): 7.36^[b]
Compound: CC(=NOCC(C)(C)CON=C(C)c1cccc(Cc2ccccc2)n1)c1cccc(Cc2ccccc2)n1 [Compound 798]

logP [1]: 4.82^[b] (isomer A)
Compound: C=C(CON=C(C)c1cccc(C)n1)CON=C(C)c1ccc(Cl)s1 (single isomer, unassigned) [compound 195]

logP (value marked [b]): 6.48^[b]
Compound: CCc1nc(C(C)=NOCC(C)CON=C(C)c2ccc(C)c(CC)n2)ccc1C (stereo not drawn) [Compound 310]

logP [2]: 4.13^[a]
Compound: Cc1cccnc1C(=NOCCCON=C(c1ncccc1C)C(C)C)C(C)C (mixture of isomers) [compound 92]

logP (method marked [b] in Table 1): 2.00^[b] | logP (method marked [c] in Table 1): 6.11^[c]
Compound: CC(=NOCCC(C)ON=C(C)c1cc(C)cc(C)n1)c1cc(C)cc(C)n1 (stereo not drawn) [Compound 558]

logP (method marked [b] in Table 1): 3.47^[b] | logP (method marked [c] in Table 1): 3.62^[c]
Compound: CC(=NOCC(C)CON=C(C)c1ccc[nH]1)c1ccc[nH]1 (mixture of isomers) [compound 566]

logP [1]: 3.33^[b]
Compound: C=C(CO/N=C(\N)c1nc(C2CC2)cc(C2CC2)n1)CO/N=C(\N)c1nc(C2CC2)cc(C2CC2)n1 [compound 47]

logP (method marked [c] in Table 1): 4.72^[c] | logP (value marked [b]): 2.72^[b]
Compound: CC(=NOCC1(CON=C(C)c2nc(C)ccc2C)CCC1)c1nc(C)ccc1C (single isomer, unassigned) [compound 760]

logP (value marked [a]): 6.76^[a] | logP (value marked [b]): 6.76^[b] | logP (value marked [c]): 6.87^[c]
Compound: COCC#Cc1cc(C)nc(C(C)=NOCC(C)CON=C(C)c2cc(C#CCOC)cc(C)n2)c1 (stereo not drawn) [compound 874]

logP (method marked [b] in Table 1): 5.65^[b]
Compound: CC#Cc1cccc(C(C)=NOCC(C)CON=C(C)c2cccc(C#CC)n2)n1 (stereo not drawn) [Compound 686]

logP [1]: 4.83^[b]
Compound: Cc1cccc(C(=NOCC(C)CON=C(c2cccc(C)n2)C(F)(F)F)C(F)(F)F)n1 (stereo not drawn) [compound 214]

logP [2]: 2.11^[a]
Compound: CC(=NOCC(C)CON=C(C)c1cc(C)cc(C)n1)c1cc(C)cc(C)n1 (stereo not drawn) [Compound 225]

logP [1]: 2.23^[b]
Compound: CC(=NOCON=C(C)c1ccccn1)c1ccccn1 [Compound 59]

logP (value marked [b]): 3.28^[b]
Compound: CC(=NOCCCCON=C(C)c1ccnc(C)n1)c1cccc(C)n1 [compound 336]

logP (value marked [b]): 7.07^[b]
Compound: CC(=NOCC(C)(C)CON=C(C)c1cccc(CC(C)C)n1)c1cccc(C)n1 [Compound 367]

logP (method marked [b] in Table 1): 3.72^[b]
Compound: CC(=NOCc1cccc(CON=C(C)c2ccccn2)c1)c1ccccn1 [compound 731]

logP (method marked [b] in Table 1): 5.21^[b]
Compound: CCC(=NOCC1(CON=C(CC)c2cccc(C)n2)CC(C(C)(C)C)=NO1)c1cccc(C)n1 (stereo not drawn) [compound 610]

logP (value marked [b]): 2.41^[b]
Compound: CC(=NOCCCCON=C(C)c1cc(C)cc(C)n1)c1cccc(C)n1 [compound 447]

logP (value marked [a]): 2.70^[a]
Compound: CC(=NOCCCON=C(C)c1cc(C)n(C)n1)c1cc(C)n(C)n1 [compound 259]

logP (value marked [b]): 4.56^[b]
Compound: C=CCCC(=NOCC(=C)CON=C(C)c1cccc(C)n1)c1ncccc1C [compound 353]

logP (method marked [b] in Table 1): 3,59^[b]
Compound: Cc1cc(C)nc(/C(N)=N/OCc2ccc(CO/N=C(\N)c3cc(C)cc(C)n3)cc2)c1 [compound 733]

logP (value marked [b]): 5.52^[b]
Compound: C=C(CON=C(C)c1cccc(C)n1)CON=C(CC(C)C)c1cccc(C)n1 [compound 356]

logP (value marked [b]): 2.16^[b]
Compound: Cc1cccc(C=NOCCCCON=Cc2cccc(C)n2)n1 [compound 776]

logP (value marked [b]): 4.51^[b]
Compound: CC(=NOCC(C)(C)CON=C(c1ccccc1)c1cccc(C)n1)c1cccc(C)n1 [Compound 371]

logP (value marked [b]): 5.84^[b]
Compound: CCCc1cccc(C(C)=NOCC(C)CON=C(C)c2cccc(C)n2)n1 (stereo not drawn) [Compound 502]

logP (method marked [b] in Table 1): 2.34^[b] | logP (method marked [c] in Table 1): 3.45^[c]
Compound: CC(=NOc1ncnc(ON=C(C)c2cccc(C)n2)c1C)c1cccc(C)n1 [compound 728]

logP [2]: 4.98^[a]
Compound: CC(=NOCC(C)CON=C(C)c1nc(C)cs1)c1nc(C)cs1 (mixture of isomers) [compound 122]

logP (value marked [a]): 4.84^[a]
Compound: Cc1cc(C)nc(C(C#N)=NOCC(C)CON=C(C#N)c2cc(C)cc(C)n2)c1 (stereo not drawn) [Compound 838]

logP (method marked [b] in Table 1): 4.01^[b]
Compound: C=C(CON=C(Cl)c1cccc(C)n1)CON=C(Cl)c1cccc(C)n1 [compound 696]

logP (value marked [b]): 6.22^[b]
Compound: CC(=NOCC(C)(C)CON=C(C)c1cccc(C)n1)c1cccc(Cl)c1 [Compound 483]

logP (value marked [a]): 4.69^[a]
Compound: CC(=NOCC(C)CON=C(C)c1ccc2c(n1)CCCC2)c1ccc2c(n1)CCCC2 (stereo not drawn) [Compound 304]

logP (value marked [a]): 1.63^[a]
Compound: CC(=NOC(=O)NCCCCNC(=O)ON=C(C)c1cc(C)cc(C)n1)c1cc(C)cc(C)n1 [compound 852]

logP (value marked [b]): 3.15^[b] (isomer B)
Compound: C=C(CON=C(C)c1ccccn1)CON=C(C)c1cccc(C)n1 (single isomer, unassigned) [compound 400]

logP (value marked [b]): 2.17^[b] | logP (value marked [c]): 4.00^[c]
Compound: CC(=NOCC1(CON=C(C)c2nc(C)ccc2C)CC1)c1nc(C)ccc1C (single isomer, unassigned) [compound 764]

logP [1]: 1.51^[b]
Compound: CC(=NOCCCON=C(C)c1cccnc1)c1cccnc1 [compound 33]

logP [1]: 2.67^[b]
Compound: C=C(CO/N=C(\N)c1nc(C)c2c(n1)CCCC2)CO/N=C(\N)c1nc(C)c2c(n1)CCCC2 [compound 43]

logP (value marked [a]): 5.22^[a]
Compound: CCCC(=NOCCCON=C(CCC)c1ccc(C)c(C)n1)c1ccc(C)c(C)n1 (mixture of isomers) [Compound 260]

logP [2]: 7.36^[a]
Compound: CC(=NOCC(C)CON=C(C)c1cccc(Cc2ccccc2)n1)c1cccc(Cc2ccccc2)n1 (stereo not drawn) [Compound 173]

logP (method marked [b] in Table 1): 2.11^[b]
Compound: Cc1cc(C)nc(/C(N)=N/OCc2ccc(CO/N=C(\N)c3nc(C)cc(C)n3)cc2)n1 [compound 702]

logP [2]: 3.62^[a]
Compound: CCc1ccnc(C(C)=NOCC(C)CON=C(C)c2cc(CC)ccn2)c1 (stereo not drawn) [compound 105]

logP (value marked [a]): 5,69^[a] | logP (value marked [b]): 5.69^[b] | logP (value marked [c]): 7.32^[c]
Compound: CC(=NOCC(C)CON=C(C)c1cc(Cl)cc(C)n1)c1cc(C)cc(C)n1 (racemic) [compound 878]

logP (value marked [b]): 2.17^[b]
Compound: CC(=NOC[C@@H]1O[C@H]1CON=C(C)c1cccc(C)n1)c1cccc(C)n1 [compound 285]

logP (value marked [b]): 4.85^[b]
Compound: C=C(CON=C(C)c1ccc2c(c1)CC(C)O2)CON=C(C)c1cccc(C)n1 (stereo not drawn) [compound 468]

logP (value marked [a]): 7.36^[a] | logP (value marked [b]): 7.36^[b] | logP (value marked [c]): 5.53^[c]
Compound: CC(=NOCC(C)CON=C(C)c1cc(C(F)(F)F)cc(C)n1)c1cc(C(F)(F)F)cc(C)n1 (stereo not drawn) [compound 869]

chromatographic logP (reversed-phase HPLC column (C 18), HCO2H, HPLC reversed-phase column (C 18), 43° C., read-out: logP (HCO2H)): 2.2
Compound: C/C(=N\OCC(=O)CO/N=C(\C)c1cccc(C)n1)c1cccc(C)n1 [(2E,9E)-2,10-bis(6-methylpyridin-2-yl)-4,8-dioxa-3,9-diazaundeca-2,9-dien-6-one]

logP (value marked [b]): 2.58^[b]
Compound: CC(=NOCC(C)CON=C(C)c1cc(C)c(C)nn1)c1cc(C)c(C)nn1 (stereo not drawn) [compound 309]

logP [1]: 1.92^[b]
Compound: C=C(CON=C(C)c1cccc(C)n1)CON=C(N)c1nc(COC)c(C)c(COC)n1 [compound 183]

logP (value marked [b]): 3.02^[b]
Compound: CC(=NOCCCCON=C(C)c1ncccc1C)c1cccc(C)n1 [compound 451]

logP (method marked [b] in Table 1): 3.11^[b]
Compound: CCCC1=NOC(CON=C(C)c2ccc(C)c(C)n2)(CON=C(C)c2ccc(C)c(C)n2)C1 (stereo not drawn) [compound 629]

logP [1]: 2.91^[b]
Compound: C=C(CON=C(C)c1nc(C)cc(C)n1)CON=C(C)c1nc(C)cc(C)n1 [compound 146]

logP (method marked [b] in Table 1): 3.87^[b] (isomer A)
Compound: C=C(CON=C(C)c1cccc(C)n1)CON=C(c1cccc(C)n1)C(C)C (single isomer, unassigned) [Compound 672]
